Columns and labels:
[1] = system: harmful plants such as Stellaria media, Lolium multiflorum, Amaranthus retroflexus, Sinapis alba, Avena sativa and Setaria viridis; assay: Pre-emergence effect on weeds (greenhouse pot test, visual scoring); assay type: in vivo; settings: applied pre-emergence at an application rate of 1 kg or less of active substance per hectare; scored visually after 3 to 4 weeks vs untreated controls;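 also: scored as plant damage or reduced emergence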
Text: 1 Pre-emergence Effect on Weeds
Seeds or rhizome pieces of monocotyledonous and dicotyledonous weeds plants are placed in sandy loam soil in plastic pots and covered with soil. The compounds according to the invention which are formulated in the form of wettable powders or emulsion concentrates are then applied to the surface of the soil cover in the form of an aqueous suspension or emulsion at an application rate of 600 to 800 l of water/ha (converted), in various dosages.

[2] = system: harmful plants such as Sinapis alba, Echinochloa crus- galli, Lolium multiflorum, Stellaria media, Cyperus iria, Amaranthus retroflexus, Setaria viridis and …; assay: Post-emergence effect on weeds (greenhouse pot test, visual scoring); assay type: in vivo; settings: applied post-emergence (three-leaf stage) at an application rate of 1 kg and less of active substance per hectare; scored visually after about 3 to 4 weeks vs untreated controls
Procedure: 2. Post-emergence Effect on Weeds
Seeds or rhizome pieces of monocotyledonous and dicotyledonous weeds are placed in sandy loam soil in plastic pots, covered with soil and grown in the greenhouse under good growth conditions. Three weeks after sowing, the test plants are treated in the three-leaf stage. The compounds according to the invention which are formulated as wettable powders or as emulsion concentrates are sprayed in various dosages on the green parts of the plants at an application rate of 600 to 800 l of water/ha (converted). After the test plants have remained in the greenhouse for about 3 to 4 weeks under ideal growth conditions, the effect of the preparations is scored visually by comparison with untreated controls. The agents according to the invention also have a good herbicidal post-emergence action against a broad range of economically important grass weeds and dicotyledonous weeds.

Compound	herbicidal action against harmful plants, pre-emergence [1]	herbicidal action against harmful plants, post-emergence [2]
Cc1nc(N)nc(NC(CCc2ccccc2)C2CCC2)n1 (centres unmarked) [Example 4-3]	very good herbicidal action	very good herbicidal action
CC(C)c1nc(N)nc(NC(CCc2cccc(Cl)c2)C2CCC2)n1 (centres unmarked) [Example 4-10]	very good herbicidal action	very good herbicidal action
CC(C)(F)c1nc(N)nc(NC(CCc2cccc(Cl)c2)C2CCC2)n1 (centres unmarked) [Example 4-11]	very good herbicidal action	very good herbicidal action
Cc1ccccc1CCC(Nc1nc(N)nc(C(C)(C)F)n1)C1CCC1 (centres unmarked) [Example 4-25]	very good herbicidal action	very good herbicidal action
Cc1ccccc1CCC(Nc1nc(N)nc(C(C)C)n1)C1CCC1 (centres unmarked) [Example 4-26]	very good herbicidal action	very good herbicidal action
CC(C)c1nc(N)nc(NC(CCc2cccc(F)c2)C2CCC2)n1 (centres unmarked) [Example 4-27]	very good herbicidal action	very good herbicidal action
CC(C)(F)c1nc(N)nc(NC(CCc2cccc(F)c2)C2CCC2)n1 (centres unmarked) [Example 4-28]	very good herbicidal action	very good herbicidal action
Cc1cccc(CCC(Nc2nc(C)nc(N)n2)C2CCC2)c1 (centres unmarked) [Example 4-29, 2-Amino-6-methyl-4-[3-(3-methylphenyl)-1-cyclobutyl-1-propylamino]1,3,5-triazine]	very good herbicidal action	very good herbicidal action
CC(C)c1nc(N)nc(NC(CCc2ccccc2)C2CCCC2)n1 (centres unmarked) [Example 8-1]	very good herbicidal action	very good herbicidal action
CC(C)(F)c1nc(N)nc(NC(CCc2ccccc2)C2CCCC2)n1 (centres unmarked) [Example 8-2]	very good herbicidal action	very good herbicidal action
CC(C)Cc1nc(N)nc(NC(CCc2ccccc2)C2CC2)n1 (centres unmarked) [Example 9-1]	very good herbicidal action	very good herbicidal action
CCc1nc(N)nc(NC(CCc2ccccc2)C2CC2)n1 (centres unmarked) [Example 9-2]	very good herbicidal action	very good herbicidal action
Cc1nc(N)nc(NC(CCc2ccccc2)C2CC2)n1 (centres unmarked) [Example 9-3]	very good herbicidal action	very good herbicidal action
CC(C)(F)c1nc(N)nc(NC(CCc2cccc(C(F)(F)F)c2)C2CC2)n1 (centres unmarked) [Example 9-6]	very good herbicidal action	very good herbicidal action
CC(C)(F)c1nc(N)nc(NC(CCc2cccc(Cl)c2)C2CC2)n1 (centres unmarked) [Example 9-8]	very good herbicidal action	very good herbicidal action
CC(C)c1nc(N)nc(NC(CCc2cccc(C(F)(F)F)c2)C2CC2)n1 (centres unmarked) [Example 9-11]	very good herbicidal action	very good herbicidal action
Cc1cccc(CCC(Nc2nc(N)nc(C(C)C)n2)C2CC2)c1 (centres unmarked) [Example 9-12]	very good herbicidal action	very good herbicidal action
COc1cccc(CCC(Nc2nc(N)nc(C(C)C)n2)C2CC2)c1 (centres unmarked) [Example 9-13]	very good herbicidal action	very good herbicidal action
COc1cccc(CCC(Nc2nc(N)nc(C(C)(C)F)n2)C2CC2)c1 (centres unmarked) [Example 9-14]	very good herbicidal action	very good herbicidal action
Cc1cccc(CCC(Nc2nc(N)nc(CC(C)C)n2)C2CC2)c1 (centres unmarked) [Example 9-15]	very good herbicidal action	very good herbicidal action
Cc1cccc(CCC(Nc2nc(N)nc(C(C)(C)F)n2)C2CC2)c1 (centres unmarked) [Example 9-16]	very good herbicidal action	very good herbicidal action
Cc1cc(C)cc(CCC(Nc2nc(N)nc(C(C)(C)F)n2)C2CC2)c1 (centres unmarked) [Example 9-17, 2-Amino-4-(1-fluoro-1-methylethyl)-6-[3-(3,5-dimethylphenyl)-1-cyclopropyl-1-propylamino]-1,3,5-triazine]	very good herbicidal action	very good herbicidal action
Cc1cc(C)cc(CCC(Nc2nc(N)nc(C(C)C)n2)C2CC2)c1 (centres unmarked) [Example 9-18]	very good herbicidal action	very good herbicidal action
Nc1nc(NC(CCc2ccccc2)C2CC2)nc(-c2ccccc2)n1 (centres unmarked) [Example 9-19]	very good herbicidal action	very good herbicidal action
CC(C)(F)c1nc(N)nc(NC(CCc2ccccc2)C2CC2(C)C)n1 (centres unmarked) [Example 10-1]	very good herbicidal action	very good herbicidal action
CC(C)(F)c1nc(N)nc(NC(CCc2ccccc2)c2ccoc2)n1 (centres unmarked) [Example 18-1]	very good herbicidal action	very good herbicidal action
CC(C)c1nc(N)nc(NC(CCc2ccccc2)c2ccoc2)n1 (centres unmarked) [Example 18-2]	very good herbicidal action	very good herbicidal action
CC(C)(F)c1nc(N)nc(NC(CCc2ccccc2)c2ccccc2)n1 (centres unmarked) [Example 18-3]	very good herbicidal action	very good herbicidal action

Reference: patent US20030162661A1, “2,4-Diamino-1,3,5-triazines, their preparation, and their use as herbicides and plant growth regulators” (priority 1998, published 2003)
